Assay [1] deals with spores. The note with it: prior art; cited from earlier work.
Assay [2] has as its system Bacillus subtilis ATCC 6633. Kind of assay: Concentration test spores of Bacillus subtilis (method B), with and without lysozyme. The format is cell-based. The settings on record: use concentration of 0.001% (Figure 2). How it is done:
• fixed pipettes 1 ml; 500 µl, and 100 µl • sterile glass pipettes 10 ml • sterile spatulas • sterile Schott bottles • water bath 30°C • CSA-agar + TLSH (Tween 80 3%; lecithin 0.3%; saponin 3%, histidine 0.1%) • Bacillus subtilis ATCC 6633 stored in a) H2O or b) ethanol
Spore samples are provided commercially, sometimes as ethanolic solution (40% ethanol in water).
Germination medium: + TLSH:
The germ count of the ordered spore solution is ascertained prior to the start of the experiment by means of plating out and counting and, if appropriate, the spore suspension is diluted. On the day of the experiment, a starting germ count (SGC) is again generated from the spore suspension used. By means of spore counting under the microscope in a Helber chamber, a comparison is drawn between spores which are actually present and the number of germinating spores. The starting spore count should be ca. 1 × 10^7 CFU/ml. With the help of the malachite green coloration, adequate sporulation of the spore suspension used was verified by means of light microscopy.
Samples are taken regularly over several weeks. The experimental solutions stand in the dark at room temperature during the action times.
In each case 50 ml per solution to be investigated are pipetted into a sterile Schott bottle, inoculated with 50 µl of spore suspension and incubated at room temperature. […]

As to `CCCCCCCCCC[N+](C)(C)CCCCCCCCCC.[Cl-]` [didecyldimethylammonium chloride], in assay [1], the germination of spores entry was “prevent the germination of spores” and the killing of spores result is reported as “do not kill them”.

As to benzalkonium chloride, in assay [1], the germination of spores entry was “prevent the germination of spores” and the killing of spores result was “spores are not killed”.

In the case of `CCCCCCCCN=c1ccn(CCCCCCCCCCn2ccc(=NCCCCCCCC)cc2)cc1.Cl.Cl` [octenidine, N,N'-(1,10-decanediyldi-1[4H]-pyridinyl-4-ylidene)bis(1-octanamine) dihydrochloride], in assay [2], the “effect against B. subtilis ATCC 6633” value is listed as “effective” and the “time after which the effect can be detected” value is “after just one day”.
